Values of other authors, collected in patent US20210353783A1, “IMAGING AGENTS FOR RADIOLABELING EXOGENOUS AND ENDOGENOUS ALBUMIN” (CENTURION BIOPHARMA CORPORATION, priority 2018, published 2021).

Columns and labels:
[1] = human, after intravenous administration, bound to cysteine-34 of endogenous albumin
[2] = phase 1-3 clinical trials
circulating albumin = circulating albumin (Homo sapiens, UniProt P02768)
circulating albumin, sequence (P02768 25-609): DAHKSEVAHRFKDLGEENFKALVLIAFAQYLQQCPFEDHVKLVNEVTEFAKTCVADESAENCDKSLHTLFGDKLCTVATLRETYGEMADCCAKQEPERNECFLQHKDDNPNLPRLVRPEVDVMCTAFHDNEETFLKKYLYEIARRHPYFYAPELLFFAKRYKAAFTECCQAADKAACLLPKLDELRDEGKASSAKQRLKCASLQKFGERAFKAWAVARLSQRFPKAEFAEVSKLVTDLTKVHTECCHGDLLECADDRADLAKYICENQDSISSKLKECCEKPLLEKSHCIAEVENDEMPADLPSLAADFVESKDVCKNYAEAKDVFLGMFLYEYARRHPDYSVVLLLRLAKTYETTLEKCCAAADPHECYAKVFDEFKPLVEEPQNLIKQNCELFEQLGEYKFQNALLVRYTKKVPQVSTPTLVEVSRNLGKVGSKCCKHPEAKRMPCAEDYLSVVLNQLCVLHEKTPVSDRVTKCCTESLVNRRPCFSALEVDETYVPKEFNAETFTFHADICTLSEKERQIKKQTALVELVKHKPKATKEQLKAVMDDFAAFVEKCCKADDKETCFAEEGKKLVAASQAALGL

For COc1cccc2c1C(=O)c1c(O)c3c(c(O)c1C2=O)C[C@@](O)(/C(CO)=N/NC(=O)CCCCCN1C(=O)C=CC1=O)C[C@@H]3O[C@H]1C[C@H](N)[C@H](O)[C@H](C)O1 [aldoxorubicin, (6-maleimidocaproyl)hydrazone derivative of doxorubicin], the t1/2 in man [1] is listed as 20 to 21 h, the cardiotoxicity [2] is listed as “lack of cardiotoxicity” and the “increase in the maximum tolerated dose (MTD) compared to conventional doxorubicin” value [2] is listed as 3.5 fold. The “binding to circulating albumin” value (circulating albumin) was “rapidly and selectively bound to circulating albumin within a few minutes”.
